The values that follow come from PubChem BioAssay (NCI).

Test systems include CAKI-1 renal; 786-0 renal; MALME-3M melanoma; UACC-62 melanoma; OVCAR-5 ovarian; NCI-H522 lung; U251 CNS; HT29 colon; SK-MEL-2 melanoma; ACHN renal.
Experiment in all cases: DTP human tumour cell line panel, 48 h

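Values below derive from 48-hour exposures of cells grown in 96-well plates, with endpoints linearly interpolated between the two concentrations bracketing the appropriate inhibition level. Abbreviation: GI50, concentration required for 50% inhibition of growth. TGI is the concentration that stops growth completely.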

For `COc1cc2cnc3c4cc(OC(C)C)c(OC)cc4ccc3c2cc1OC`, the concentration for total growth inhibition (TGI) in the test on CAKI-1 renal, in the test on 786-0 renal, in the test on MALME-3M melanoma, with UACC-62 melanoma, in the test on OVCAR-5 ovarian and in the test on NCI-H522 lung was over 100 µM in each case. The TGI with U251 CNS, in the test on HT29 colon, in the test on SK-MEL-2 melanoma and with ACHN renal was over 100 µM throughout.
Regarding `CC(=O)OC1COC(n2c(=S)n(-c3ccc(C)cc3)c(=O)c3ccccc32)C(OC(C)=O)C1OC(C)=O` (stereo not drawn), the TGI in the test on CAKI-1 renal, with 786-0 renal, with MALME-3M melanoma, in the test on UACC-62 melanoma, with OVCAR-5 ovarian and in the test with NCI-H522 lung was over 100 µM in each case. Further, the concentration for total growth inhibition (TGI) with U251 CNS, in the test with HT29 colon, in the test on SK-MEL-2 melanoma and with ACHN renal was over 100 µM in each case.
Consider `CCc1ccc2c(c1)C(=O)c1c-2n(CCCBr)c(=O)c2cc([N+](=O)[O-])ccc12`, for which the GI50 in the test with CAKI-1 renal was over 50 µM; in the test with 786-0 renal, 23.4 µM; in the test with MALME-3M melanoma, 18.5 µM; with UACC-62 melanoma it was 32.2 µM; in the test on OVCAR-5 ovarian, over 50 µM; with NCI-H522 lung, 45900 nM. The GI50 in the test on U251 CNS is 26 µM; in the test on HT29 colon, over 50000 nM; in the test with SK-MEL-2 melanoma, 31.9 µM; in the test on ACHN renal it was over 50 µM. Moreover, the TGI in the test with CAKI-1 renal, in the test with 786-0 renal, with MALME-3M melanoma, with UACC-62 melanoma, with OVCAR-5 ovarian and in the test with NCI-H522 lung was over 50 µM throughout. The total growth inhibition concentration (TGI) with U251 CNS, in the test with HT29 colon, in the test on SK-MEL-2 melanoma and in the test on ACHN renal was over 50 µM each time.
In the case of `NC(CSC(c1ccccc1)(c1ccccc1)c1ccc2c(c1)OCO2)C(=O)O` (stereo not drawn), the GI50 in the test with CAKI-1 renal is 5.14 µM; in the test with 786-0 renal, 2.96 µM; in the test on MALME-3M melanoma it was 0.979 µM; in the test with UACC-62 melanoma, 0.57 µM; in the test on OVCAR-5 ovarian it was 7.22 µM; in the test with NCI-H522 lung it was 208 nM. The GI50 in the test with U251 CNS is 0.405 µM; in the test on HT29 colon, 1810 nM; in the test on SK-MEL-2 melanoma it was 0.511 µM; with ACHN renal it was 4.06 µM. The TGI in the test with CAKI-1 renal was over 100 µM; with 786-0 renal, over 89.4 µM; with MALME-3M melanoma, 74.4 µM; with UACC-62 melanoma it was over 62.9 µM; in the test with OVCAR-5 ovarian, over 100 µM; in the test on NCI-H522 lung, 0.535 µM. In addition, the TGI was over 74.5 µM with U251 CNS, over 44.5 µM with HT29 colon, 27.4 µM in the test with SK-MEL-2 melanoma and over 100 µM with ACHN renal.
For the compound `O=C(/C=C/c1ccccc1Cl)c1ccc(Cl)c(Cl)c1`, the concentration for total growth inhibition (TGI) with CAKI-1 renal was 30.9 µM; in the test with 786-0 renal it was 29.8 µM; in the test on MALME-3M melanoma, 55.7 µM; with UACC-62 melanoma, 45.6 µM; in the test with OVCAR-5 ovarian, 32.8 µM; in the test with NCI-H522 lung, 31.1 µM. The TGI in the test with U251 CNS turned out to be 31.1 µM; with HT29 colon, 36 µM; in the test with SK-MEL-2 melanoma it was 36.9 µM; with ACHN renal, 28.6 µM.
With `Nc1cc2nc3ccccc3sc-2cc1=O`, the GI50 with CAKI-1 renal was 5.66 µM; in the test on 786-0 renal, 4.21 µM; in the test on MALME-3M melanoma it was 2.04 µM; in the test with UACC-62 melanoma, 1.55 µM; in the test with OVCAR-5 ovarian, 1.93 µM; in the test on NCI-H522 lung, 2460 nM. Moreover, the GI50 is 3.63 µM in the test with U251 CNS, 2920 nM in the test on HT29 colon, 2.03 µM in the test with SK-MEL-2 melanoma and 2.5 µM in the test on ACHN renal. In addition, the total growth inhibition concentration (TGI) with CAKI-1 renal worked out at 22.1 µM; in the test with 786-0 renal it was 14.5 µM; in the test on MALME-3M melanoma, 3.62 µM; with UACC-62 melanoma it was 3.33 µM; in the test on OVCAR-5 ovarian, 4.08 µM; in the test on NCI-H522 lung, 5.87 µM. Moreover, the concentration for total growth inhibition (TGI) was 15.1 µM in the test with U251 CNS, 6.86 µM in the test on HT29 colon, 4.24 µM in the test with SK-MEL-2 melanoma and 11.1 µM with ACHN renal.
Regarding `O=C1c2cccnc2-c2nc(-c3ccccc3[N+](=O)[O-])cc3c2c1nc1ccccc13`, the GI50 in the test on CAKI-1 renal is 18 µM; in the test with 786-0 renal it was 14.7 µM; with MALME-3M melanoma it was 3.11 µM; in the test with UACC-62 melanoma, 9.9 µM; in the test with OVCAR-5 ovarian it was 6.99 µM; in the test on NCI-H522 lung, 2100 nM. In addition, the GI50 with U251 CNS was 4 µM; in the test on HT29 colon, 17200 nM; with SK-MEL-2 melanoma, 10.3 µM; with ACHN renal, 9.03 µM. The total growth inhibition concentration (TGI) in the test with CAKI-1 renal came to 43.3 µM; in the test with 786-0 renal it was 35.1 µM; in the test with MALME-3M melanoma, 14.8 µM; in the test on UACC-62 melanoma, 40.9 µM; with OVCAR-5 ovarian it was 33.4 µM; with NCI-H522 lung, 6.4 µM. The TGI is 19.6 µM in the test with U251 CNS, 33.2 µM in the test with HT29 colon, 53.1 µM in the test with SK-MEL-2 melanoma and over 92.2 µM with ACHN renal.
As for `CN(CC(=O)O)S(=O)(=O)c1ccc2ccccc2c1`, the concentration for total growth inhibition (TGI) in the test with CAKI-1 renal, in the test on 786-0 renal, in the test with MALME-3M melanoma, in the test with UACC-62 melanoma, in the test on OVCAR-5 ovarian and with NCI-H522 lung was over 100 µM each time. The TGI in the test on U251 CNS, in the test with HT29 colon, with SK-MEL-2 melanoma and in the test with ACHN renal was over 100 µM in each case.
In the case of `CC1(C)COC(c2ccc(C(F)(F)F)cc2C(O)c2ccc3ccccc3c2)=N1` (stereo not drawn), the GI50 with CAKI-1 renal is over 10 µM; in the test on 786-0 renal it was over 100 µM; in the test on MALME-3M melanoma, over 100 µM; in the test on UACC-62 melanoma, over 100 µM; in the test on OVCAR-5 ovarian, over 100 µM; in the test on U251 CNS, over 100 µM. For the same compound, the GI50 in the test on SK-MEL-2 melanoma and with ACHN renal was over 100 µM throughout. The TGI is over 100 µM in the test with CAKI-1 renal; over 100 µM in the test with 786-0 renal; over 100 µM in the test with MALME-3M melanoma; over 100 µM with UACC-62 melanoma; over 100 µM with OVCAR-5 ovarian; over 10 µM in the test with NCI-H522 lung. Moreover, the TGI with U251 CNS is over 100 µM; in the test with HT29 colon, over 10 µM; with SK-MEL-2 melanoma, over 100 µM; in the test on ACHN renal, over 100 µM.
